Laboratory results reported in paper PMC6993587, “Detection of EXP1-Specific CD4+ T Cell Responses Directed Against a Broad Range of Epitopes Including Two Promiscuous MHC Class II Binders During Acute Plasmodium falciparum Malaria” (Frontiers in Immunology, 2020).

Tested on: CD8+ T cells (PBMCs of malaria patients)
Assay: EXP1-specific CD8+ T cell response, ICS for IFNγ after in vitro culture
Assay type: cell-based, human
Conditions: patients HH-16, HH-18, HH-20 and HH-25; coincided with a CD4+ T cell response against the same peptide
Method: Cryopreserved PBMCs were thawed and cultivated at 1–5 × 10^6 cells/ml for optimal results in 500 μl of R10 medium (RPMI 1640 medium with 10% FCS (Sigma Aldrich), 1% HEPES buffer and 1% Penicillin-Streptomycin). PBMCs were stimulated with EXP1 peptide pool 1 [EXP1 peptide 1-10 (EXP1-P01-10)], pool 2 (EXP1-P11-20) or pool 3 (EXP1-P21-31) (Table 2) at a final concentration of 10 μg/ml, together with 1 μg/ml of anti-CD28 and anti-CD49d antibodies [BD FastImmune™, clone: L293 (CD28) and clone: L25 (CD49d)] for 14 days. Medium with recombinant IL-2 (50 U/ml) was added when necessary. After 14 days, cells were re-stimulated with single EXP1-peptides (final concentration 10 μg/ml) and then assayed for interferon-γ (IFNγ) production by ELISPOT and intracellular cytokine staining (ICS) as previously described ([28]).
ICS was performed as previously described ([26], [28]). 5 × 10^5 PBMCs were stimulated with the corresponding EXP1 peptide at a final concentration of 10 μg/ml before blocking the secretion with 10 μg/ml Brefeldin A (Sigma Aldrich) 1 h after stimulation. […] Cells were then analyzed on a BD LSRFortessa (BD Bioscience). […]

Sequence: KKGSGEPLIDVHDLI [EXP1-P09, overlapping peptide of P. falciparum EXP1, aa 40–54]
- CD8+ T cell response: CD8+ T cell response
